Reference: ChEMBL document CHEMBL5236635, “Structure-Based Drug Design and Synthesis of Novel N-Aryl-2,4-bithiazole-2-amine CYP1B1-Selective Inhibitors in Overcoming Taxol Resistance in A549 Cells” (J Med Chem, 2022)
pIC50: −log10 of the molar value.

Columns and labels:
[1] = target: T1, Cytochrome P450 1B1 (Homo sapiens, UniProt Q16678); test: Inhibition of recombinant human CYP1B1 using 7-ethyl-0-resorufin as substrate incubated for 30 mins in presence of NADPH by EROD assay
T1 sequence (Q16678 whole entry): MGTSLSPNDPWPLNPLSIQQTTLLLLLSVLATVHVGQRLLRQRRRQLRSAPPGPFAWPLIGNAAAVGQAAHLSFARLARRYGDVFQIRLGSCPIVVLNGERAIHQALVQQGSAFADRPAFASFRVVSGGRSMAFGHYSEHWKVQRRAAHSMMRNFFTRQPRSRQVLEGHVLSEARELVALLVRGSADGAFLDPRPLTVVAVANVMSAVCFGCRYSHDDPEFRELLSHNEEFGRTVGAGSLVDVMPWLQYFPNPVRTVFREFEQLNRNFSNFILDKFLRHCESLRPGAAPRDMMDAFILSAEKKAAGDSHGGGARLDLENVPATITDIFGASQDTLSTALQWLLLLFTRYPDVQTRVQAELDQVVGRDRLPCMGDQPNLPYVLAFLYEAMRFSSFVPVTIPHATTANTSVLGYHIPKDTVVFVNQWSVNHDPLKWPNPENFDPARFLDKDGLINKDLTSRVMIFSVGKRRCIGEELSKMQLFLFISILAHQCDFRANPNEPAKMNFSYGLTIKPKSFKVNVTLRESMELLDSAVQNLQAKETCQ

[2] = target: T2, Cytochrome P450 1A1 (Homo sapiens, UniProt P04798); test: Inhibition of recombinant human CYP1A1 using 7-ethyl-0-resorufin as substrate incubated for 30 mins in presence of NADPH by EROD assay
T2 sequence (P04798 whole entry): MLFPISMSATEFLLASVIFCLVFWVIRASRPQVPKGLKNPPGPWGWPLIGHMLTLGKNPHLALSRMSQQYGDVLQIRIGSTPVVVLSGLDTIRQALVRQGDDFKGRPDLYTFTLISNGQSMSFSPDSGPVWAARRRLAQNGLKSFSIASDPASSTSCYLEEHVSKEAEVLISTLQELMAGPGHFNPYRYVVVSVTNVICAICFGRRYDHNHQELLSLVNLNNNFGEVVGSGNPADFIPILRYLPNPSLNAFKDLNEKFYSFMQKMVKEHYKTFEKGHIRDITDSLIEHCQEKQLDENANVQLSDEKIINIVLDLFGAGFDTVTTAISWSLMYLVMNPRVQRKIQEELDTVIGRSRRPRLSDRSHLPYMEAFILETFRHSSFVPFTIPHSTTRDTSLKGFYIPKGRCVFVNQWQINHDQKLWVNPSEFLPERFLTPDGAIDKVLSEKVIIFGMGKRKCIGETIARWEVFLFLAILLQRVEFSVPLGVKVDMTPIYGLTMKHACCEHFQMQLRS

[3] = system: CYP1A2 versus CYP1B1; test: Selectivity index, ratio of IC50 for inhibition of recombinant human CYP1A2 to IC50 for inhibition of recombinant human CYP1B1; conditions: recombinant human CYP1A2 and recombinant human CYP1B1
[4] = target: T3, Cytochrome P450 1A2 (Homo sapiens, UniProt P05177); test: Inhibition of recombinant human CYP1A2 using 7-ethyl-0-resorufin as substrate incubated for 30 mins in presence of NADPH by EROD assay
T3 sequence (P05177 whole entry): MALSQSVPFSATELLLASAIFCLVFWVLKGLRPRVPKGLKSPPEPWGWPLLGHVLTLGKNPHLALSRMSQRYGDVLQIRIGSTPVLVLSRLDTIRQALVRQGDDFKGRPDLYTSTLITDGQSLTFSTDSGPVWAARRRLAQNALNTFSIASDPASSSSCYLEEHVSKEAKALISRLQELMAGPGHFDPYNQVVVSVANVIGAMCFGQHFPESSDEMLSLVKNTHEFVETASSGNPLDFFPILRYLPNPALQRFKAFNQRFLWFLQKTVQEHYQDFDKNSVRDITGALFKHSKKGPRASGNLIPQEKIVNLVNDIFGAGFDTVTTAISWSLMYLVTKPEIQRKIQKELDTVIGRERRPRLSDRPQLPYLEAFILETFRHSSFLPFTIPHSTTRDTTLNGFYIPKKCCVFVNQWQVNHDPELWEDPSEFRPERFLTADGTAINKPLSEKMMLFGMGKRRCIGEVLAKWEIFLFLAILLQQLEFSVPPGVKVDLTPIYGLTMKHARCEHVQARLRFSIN

[5] = system: CYP1A1 versus CYP1B1; test: Selectivity index, ratio of IC50 for inhibition of recombinant human CYP1A1 to IC50 for inhibition of recombinant human CYP1B1; conditions: recombinant human CYP1A1 and recombinant human CYP1B1
[6] = target: T4, CYP1B1 (Homo sapiens, UniProt Q16678); test: Inhibition of recombinant human CYP1B1 assessed as inhibition ratio at 100 nM using 7-ethyl-0-resorufin as substrate incubated for 30 mins in presence of NADPH by EROD assay relative to control; conditions: recombinant human CYP1B1, probe 7-ethyl-0-resorufin
T4 sequence (Q16678 whole entry): T1 sequence (Q16678 whole entry)

Structure (SMILES)	pIC50 [1]	pIC50 [2]	inhibition at 0.5 h, 0.1 µM [6]	also measured
COc1cc(Nc2nc(-c3nc(-c4ccc(F)cc4)cs3)cs2)cc(OC)c1	7.19	< 5.00		
Clc1cc(Cl)cc(Nc2nc(-c3nc(-c4ccccc4)c(-c4ccccc4)s3)cs2)c1	7.41	5.72		selectivity ratio [3]: 9.77; pIC50 [4]: 6.42; selectivity ratio [5]: 49.3
Clc1cc(Cl)cc(Nc2nc(-c3nc(-c4ccncc4)cs3)cs2)c1	7.84	5.99		selectivity ratio [3]: 162; pIC50 [4]: 5.63; selectivity ratio [5]: 70.4
Oc1ccc(Nc2nc(-c3nccs3)cs2)cc1			73.9%	
CCc1sc(-c2csc(Nc3cc(OC)cc(OC)c3)n2)nc1-c1ccccc1	7.96	6.21		selectivity ratio [3]: 484; pIC50 [4]: 5.28; selectivity ratio [5]: 56.3
Clc1ccccc1Nc1nc(-c2nccs2)cs1			72.8%	
Fc1ccc(Nc2nc(-c3nccs3)cs2)cc1Cl			94.1%	
Fc1ccccc1-c1csc(-c2csc(Nc3ccc(N4CCOCC4)cc3)n2)n1	7.89	6.96		selectivity ratio [3]: 392; pIC50 [4]: 5.30; selectivity ratio [5]: 8.48
Nc1cccc(Nc2nc(-c3nccs3)cs2)c1			57.9%	
Fc1ccccc1Nc1nc(-c2nccs2)cs1			89.6%	
Fc1ccc(Nc2nc(-c3nccs3)cs2)cc1	7.45	6.02	92%	
O=[N+]([O-])c1cccc(Nc2nc(-c3nccs3)cs2)c1			57.6%	
Oc1cccc(Nc2nc(-c3nccs3)cs2)c1			72.8%	
COc1ccccc1Nc1nc(-c2nccs2)cs1			60%	
COc1cc(Nc2nc(-c3nc(-c4ccc(Cl)cc4F)cs3)cs2)cc(OC)c1	7.90	< 5.00		pIC50 [4]: < 5.00
Clc1ccc(Nc2nc(-c3nccs3)cs2)nc1			78.8%	
c1csc(-c2csc(Nc3ccc(-n4cncn4)cc3)n2)n1			82%	
COc1cc(Nc2nc(-c3nc(-c4ccccc4)cs3)cs2)cc(OC)c1	8.41	6.65		
O=[N+]([O-])c1ccc(Nc2nc(-c3nccs3)cs2)cc1			41.3%	
c1cnc2ccc(Nc3nc(-c4nccs4)cs3)cc2c1			93.4%	
Fc1ccc(Nc2nc(-c3nccs3)cs2)nc1			75%	
c1csc(-c2csc(Nc3ccc(N4CCNCC4)cc3)n2)n1			43.7%	
Fc1cc(Cl)ccc1-c1csc(-c2csc(Nc3ccc(N4CCOCC4)cc3)n2)n1	6.27	< 5.00		selectivity ratio [3]: 1.86; pIC50 [4]: 6.00
c1cc(Nc2nc(-c3nccs3)cs2)cc(-n2ccnc2)c1			92.4%	
c1ccc2cc(Nc3nc(-c4nccs4)cs3)ccc2c1			80%	
COc1ccc(-c2csc(-c3csc(Nc4cc(OC)cc(OC)c4)n3)n2)cc1	7.29	6.08		
N#Cc1ccc(Nc2nc(-c3nccs3)cs2)cc1			81.5%	
Nc1ccc(Nc2nc(-c3nccs3)cs2)cc1			54%	
